Tests used:
LIM domain kinase 2 [1] = biological target: T1, LIM domain kinase 2 (Homo sapiens, UniProt P53671); assay: Inhibition of human full-length LIMK2 assessed as incorporation of P33 from ATP into biotinylated-cofilin substrate by scintillation counting analysis in presence of 2 uM ATP
[2] = biological target: T2, Rho-associated protein kinase 1 (Homo sapiens, UniProt Q13464); assay: Inhibition of human Rock1 assessed as incorporation of P33 from ATP into biotinylated-cofilin substrate by scintillation counting analysis in presence of 2 uM ATP
Mus musculus = assay: Reduction in dexamethasone-induced ocular hypertensive C57BL/6J-Tyr c-Brd x 129S5/SvEvBrd, F2 generation mouse assessed as intraocular pressure at 5 mg/ml, topical instillation measured after 2 hrs; format: functional, Eye
[3] = Stability of the compound in 1:1 H2O/MeOH assessed as decomposition measured at 60 degC after 24 hrs by HPLC; format: physicochemical
[4] = biological target: T3, Rho-associated protein kinase 2 (Homo sapiens, UniProt O75116); assay: Inhibition of human Rock2 assessed as incorporation of P33 from ATP into biotinylated-cofilin substrate by scintillation counting analysis in presence of 2 uM ATP
LIM domain kinase 2 [5] = biological target: T1, LIM domain kinase 2; assay: Inhibition of human full-length LIMK2 assessed as incorporation of P33 from ATP into biotinylated-cofilin substrate by scintillation counting analysis in presence of 200 uM ATP
[6] = biological target: T2, Rho-associated protein kinase 1; assay: Inhibition of human Rock1 assessed as incorporation of P33 from ATP into biotinylated-cofilin substrate by scintillation counting analysis in presence of 200 uM ATP
[7] = biological target: T3, Rho-associated protein kinase 2; assay: Inhibition of human Rock2 assessed as incorporation of P33 from ATP into biotinylated-cofilin substrate by scintillation counting analysis in presence of 200 uM ATP
LIM domain kinase 2 [8] = biological target: T1, LIM domain kinase 2; assay: Binding affinity to human LIMK2
[9] = biological target: T3, Rho-associated protein kinase 2; assay: Binding affinity to human Rock2
[10] = Cmax in rat dosed topically; format: ADME, organism-based; settings: in vivo, topical or ocular
[11] = Stability of the compound in aqueous solution formulation at 60 degC after 14 days; format: physicochemical; settings: read-out: Stability
LIM domain kinase 1 = LIM domain kinase 1 (Homo sapiens, UniProt P53667); assay: Inhibition of human LIMK1 assessed as incorporation of P33 from ATP into biotinylated-cofilin substrate by scintillation counting analysis in presence of 2 uM ATP
Chain of LIM domain kinase 1 (P53667 whole entry, the tested form may be a part): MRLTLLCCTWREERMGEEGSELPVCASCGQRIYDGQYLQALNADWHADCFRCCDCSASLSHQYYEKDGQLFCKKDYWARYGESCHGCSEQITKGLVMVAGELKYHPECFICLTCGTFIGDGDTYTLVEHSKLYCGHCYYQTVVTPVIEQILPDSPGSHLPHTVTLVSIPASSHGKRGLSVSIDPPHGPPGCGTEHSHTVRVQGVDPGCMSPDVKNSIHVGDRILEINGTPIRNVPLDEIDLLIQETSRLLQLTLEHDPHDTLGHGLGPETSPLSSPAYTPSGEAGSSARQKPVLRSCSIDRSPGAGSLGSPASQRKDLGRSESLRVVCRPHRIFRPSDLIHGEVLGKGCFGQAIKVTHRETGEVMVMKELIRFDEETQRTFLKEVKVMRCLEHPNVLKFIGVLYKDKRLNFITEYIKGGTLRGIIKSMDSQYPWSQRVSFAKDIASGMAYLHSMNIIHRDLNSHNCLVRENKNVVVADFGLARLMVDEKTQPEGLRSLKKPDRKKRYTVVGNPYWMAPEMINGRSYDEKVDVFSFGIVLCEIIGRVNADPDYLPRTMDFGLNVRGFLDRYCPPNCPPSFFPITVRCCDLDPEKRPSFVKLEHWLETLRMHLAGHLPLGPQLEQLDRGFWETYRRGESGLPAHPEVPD

T1 sequence (P53671 whole entry, the tested form may be a part): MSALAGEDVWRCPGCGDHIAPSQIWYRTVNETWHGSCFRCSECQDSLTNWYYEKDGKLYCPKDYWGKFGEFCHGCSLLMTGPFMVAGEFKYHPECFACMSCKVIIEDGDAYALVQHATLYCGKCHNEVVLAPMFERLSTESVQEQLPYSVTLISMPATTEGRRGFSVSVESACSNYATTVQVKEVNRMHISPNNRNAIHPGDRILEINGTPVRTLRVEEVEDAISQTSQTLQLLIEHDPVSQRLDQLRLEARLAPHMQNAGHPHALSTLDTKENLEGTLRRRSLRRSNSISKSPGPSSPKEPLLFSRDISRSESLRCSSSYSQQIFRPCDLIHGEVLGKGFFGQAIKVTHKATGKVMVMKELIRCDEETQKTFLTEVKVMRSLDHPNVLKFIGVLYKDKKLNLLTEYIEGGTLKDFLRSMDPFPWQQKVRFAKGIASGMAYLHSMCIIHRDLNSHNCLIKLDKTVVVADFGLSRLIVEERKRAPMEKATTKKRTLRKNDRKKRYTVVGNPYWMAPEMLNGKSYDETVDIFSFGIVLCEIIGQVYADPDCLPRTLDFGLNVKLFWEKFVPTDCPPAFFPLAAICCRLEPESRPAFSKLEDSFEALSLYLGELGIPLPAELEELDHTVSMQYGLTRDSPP
T2 sequence (Q13464 whole entry): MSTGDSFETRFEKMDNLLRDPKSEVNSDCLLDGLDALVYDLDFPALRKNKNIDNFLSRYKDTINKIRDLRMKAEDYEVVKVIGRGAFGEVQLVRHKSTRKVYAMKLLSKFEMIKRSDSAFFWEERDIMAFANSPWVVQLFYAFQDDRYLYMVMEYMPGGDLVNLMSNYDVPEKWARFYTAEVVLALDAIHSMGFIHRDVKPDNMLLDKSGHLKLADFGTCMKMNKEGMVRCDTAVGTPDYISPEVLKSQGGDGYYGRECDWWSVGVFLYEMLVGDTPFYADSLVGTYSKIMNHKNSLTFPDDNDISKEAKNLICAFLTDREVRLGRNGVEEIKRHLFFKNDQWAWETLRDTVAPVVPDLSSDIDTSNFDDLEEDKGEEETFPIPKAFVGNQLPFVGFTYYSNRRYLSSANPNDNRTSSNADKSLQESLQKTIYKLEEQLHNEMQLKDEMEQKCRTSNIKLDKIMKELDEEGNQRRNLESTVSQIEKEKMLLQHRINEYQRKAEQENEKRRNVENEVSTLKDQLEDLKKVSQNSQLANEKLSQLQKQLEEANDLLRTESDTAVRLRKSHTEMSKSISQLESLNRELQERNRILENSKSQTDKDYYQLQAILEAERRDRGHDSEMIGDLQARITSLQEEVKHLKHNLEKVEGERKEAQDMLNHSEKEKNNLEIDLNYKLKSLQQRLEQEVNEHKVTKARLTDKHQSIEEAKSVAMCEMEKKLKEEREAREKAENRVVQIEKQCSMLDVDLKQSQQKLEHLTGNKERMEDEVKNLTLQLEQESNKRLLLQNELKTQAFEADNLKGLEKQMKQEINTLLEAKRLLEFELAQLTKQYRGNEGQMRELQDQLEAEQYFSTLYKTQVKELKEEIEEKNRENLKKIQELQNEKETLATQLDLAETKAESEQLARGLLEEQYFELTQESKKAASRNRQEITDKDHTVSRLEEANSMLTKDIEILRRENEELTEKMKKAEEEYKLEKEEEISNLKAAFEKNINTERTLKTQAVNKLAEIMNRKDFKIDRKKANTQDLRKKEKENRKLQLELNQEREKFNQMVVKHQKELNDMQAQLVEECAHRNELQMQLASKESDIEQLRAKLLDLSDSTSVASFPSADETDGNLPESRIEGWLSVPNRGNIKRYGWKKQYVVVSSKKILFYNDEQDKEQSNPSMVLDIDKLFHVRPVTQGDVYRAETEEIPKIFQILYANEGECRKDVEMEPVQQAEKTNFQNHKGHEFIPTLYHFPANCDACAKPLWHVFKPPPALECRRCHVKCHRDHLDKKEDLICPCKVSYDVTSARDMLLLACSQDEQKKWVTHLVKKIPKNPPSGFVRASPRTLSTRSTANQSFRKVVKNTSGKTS
T3 sequence (O75116 whole entry, the tested form may be a part): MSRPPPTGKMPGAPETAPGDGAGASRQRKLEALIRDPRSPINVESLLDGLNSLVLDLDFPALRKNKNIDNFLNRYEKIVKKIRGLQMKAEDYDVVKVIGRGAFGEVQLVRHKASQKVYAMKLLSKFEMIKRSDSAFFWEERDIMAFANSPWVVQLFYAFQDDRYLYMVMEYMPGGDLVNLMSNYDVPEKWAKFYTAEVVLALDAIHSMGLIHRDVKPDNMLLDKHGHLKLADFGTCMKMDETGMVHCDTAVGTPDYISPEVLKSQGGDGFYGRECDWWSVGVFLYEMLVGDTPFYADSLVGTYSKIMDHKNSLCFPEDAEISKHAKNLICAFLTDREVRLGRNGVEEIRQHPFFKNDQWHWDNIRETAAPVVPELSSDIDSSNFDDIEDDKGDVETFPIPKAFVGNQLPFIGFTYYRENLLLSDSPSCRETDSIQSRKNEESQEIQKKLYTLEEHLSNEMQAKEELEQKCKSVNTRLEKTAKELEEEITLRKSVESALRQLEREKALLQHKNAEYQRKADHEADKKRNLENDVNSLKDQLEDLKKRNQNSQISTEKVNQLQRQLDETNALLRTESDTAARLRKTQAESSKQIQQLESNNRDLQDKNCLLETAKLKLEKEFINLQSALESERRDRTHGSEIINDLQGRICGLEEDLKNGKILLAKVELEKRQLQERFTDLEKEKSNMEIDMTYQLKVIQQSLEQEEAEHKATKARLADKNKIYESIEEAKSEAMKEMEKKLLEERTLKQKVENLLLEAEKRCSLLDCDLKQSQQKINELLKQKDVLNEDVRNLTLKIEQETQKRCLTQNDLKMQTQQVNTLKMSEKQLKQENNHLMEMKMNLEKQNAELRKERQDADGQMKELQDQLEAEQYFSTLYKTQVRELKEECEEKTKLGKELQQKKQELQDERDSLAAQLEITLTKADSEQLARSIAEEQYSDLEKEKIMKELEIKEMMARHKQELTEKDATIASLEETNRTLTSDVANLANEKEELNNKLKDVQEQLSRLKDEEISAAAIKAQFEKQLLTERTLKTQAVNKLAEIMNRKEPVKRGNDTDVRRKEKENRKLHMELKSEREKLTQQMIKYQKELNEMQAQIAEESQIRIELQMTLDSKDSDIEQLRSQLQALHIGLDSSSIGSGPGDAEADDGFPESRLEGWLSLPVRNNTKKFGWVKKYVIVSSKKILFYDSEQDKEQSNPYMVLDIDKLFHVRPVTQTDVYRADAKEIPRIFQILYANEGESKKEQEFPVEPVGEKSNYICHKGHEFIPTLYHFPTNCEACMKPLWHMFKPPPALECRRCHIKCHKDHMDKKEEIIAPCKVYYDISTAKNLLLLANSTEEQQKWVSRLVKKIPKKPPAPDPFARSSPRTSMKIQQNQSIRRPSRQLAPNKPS

Row | Structure (SMILES) | IC50 (LIM domain kinase 2 [1]) [nM] | also measured
1 | COCCOCC1(C(=O)Nc2cccc(OC(=O)N(C)C)c2)CCN(c2ncnc3[nH]cc(C)c23)CC1 | 2.7 | IC50 [2]: > 2800 nM; Activity (Mus musculus): -1.8 mmHg
2 | C=CCC1(C(=O)Nc2cccc(OC(=O)N(C)C)c2)CCN(c2ncnc3[nH]cc(C)c23)CC1 | 2.2 | –
3 | C=CCC1(C(=O)Nc2cccc(Cl)c2)CCN(c2ncnc3[nH]cc(C)c23)CC1 | 1.9 | –
4 | Cc1c[nH]c2ncnc(N3CCC(Cc4c[nH]cn4)(C(=O)Nc4cccc(OC(=O)N(C)C)c4)CC3)c12 | 1 | IC50 [2]: 514 nM; Activity (Mus musculus): -3.5 mmHg
5 | Cc1c[nH]c2ncnc(N3CCN(C(=O)Nc4cccc(OC(=O)N(C)C)c4)C(C(C)(C)C)C3)c12 (centres undefined) | 26 | –
6 | Cc1c[nH]c2ncnc(N3CCC(C(=O)Nc4cccc(OC(=O)N(C)C)c4)(N(C)C)CC3)c12 | 5.1 | –
7 | Cc1c[nH]c2ncnc(N3CC[C@H](C(=O)Nc4cccc(OC(=O)N(C)C)c4)[C@H](C)C3)c12 (relative stereo) | 110 | –
8 | Cc1c[nH]c2ncnc(N3CCN(C(=O)Cc4ccccc4)[C@@H](C)C3)c12 | 660 | Stability [3]: Stable
9 | Cc1c[nH]c2ncnc(N3CCC(C)(C(=O)Nc4cccc(C(C)(C)C)c4)CC3)c12 | 3.2 | –
10 | Cc1c[nH]c2ncnc(N3CCC(CN)(C(=O)Nc4cccc(OC(=O)N(C)C)c4)CC3)c12 [LX-7101] | 4.3 | IC50 [2]: 69 nM; IC50 [4]: 32 nM; IC50 (LIM domain kinase 2 [5]): 7.5 nM; IC50 [6]: 2200 nM; IC50 [7]: 340 nM; Activity (Mus musculus): -4.2 mmHg; Kd (LIM domain kinase 2 [8]): < 1000 nM; Kd [9]: < 1000 nM; Cmax [10]: 12 nM; remaining at 336 h [11]: 99%
11 | Cc1c[nH]c2ncnc(N3CCC(O)(C(=O)Nc4cccc(OC(=O)N(C)C)c4)CC3)c12 | 138 | –
12 | Cc1c[nH]c2ncnc(N3CCC(C(=O)Nc4cccc(OC(C)C)c4)CC3)c12 | 330 | –
13 | Cc1c[nH]c2ncnc(N3CCC(C)(C(=O)Nc4cccc(OC(=O)N(C)C)c4)CC3)c12 | 4.8 | –
14 | Cc1c[nH]c2ncnc(N3CCN4C(=O)N(c5ccccc5)CC4C3)c12 (centres undefined) | > 1000 | –
15 | Cc1c[nH]c2ncnc(N3CCN(C(=O)N[C@H](C)c4ccccc4)[C@@H](C)C3)c12 | 180 | –
16 | Cc1c[nH]c2ncnc(N3CCN(C(=O)N[C@@H](C)c4ccccc4)[C@@H](C)C3)c12 | 9.9 | –
17 | COc1cccc(NC(=O)N2CCN(c3ncnc4[nH]cc(C)c34)C[C@@H]2C)c1 | 2.7 | –
18 | Cc1c[nH]c2ncnc(N3CCN(C(=O)Nc4ccccc4)[C@@H](C)C3)c12 | 1.2 | Stability [3]: Unstable
19 | Cc1c[nH]c2ncnc(N3CC[C@H](C(=O)Nc4cccc(OC(=O)N(C)C)c4)[C@@H](C)C3)c12 (relative stereo) | 210 | –
20 | Cc1c[nH]c2ncnc(N3CCC(CCN(C)C)(C(=O)Nc4cccc(OC(=O)N(C)C)c4)CC3)c12 | 7.3 | IC50 (LIM domain kinase 1): 134 nM; IC50 [2]: 139 nM; Activity (Mus musculus): -3.4 mmHg
